Reference: patent US10590276B2, “Aqueous suspension of inorganic particulate material” (ImerTech SAS, priority 2013, dated 2020)

Tests used:
[1] = pH recovery of calcium carbonate slurry after lowering to pH 8 with CO2 enriched air (Example 1); type: physicochemical
Text: The pH of the aqueous suspension may be measured using any conventional pH meter. […] This may be carried out using either a manual or automatic method, depending on the type of instrument being used.
(§1) The pH of the aqueous suspension may be measured by: • mixing a sample of the aqueous suspension to ensure homogeneity, by using either the bench stirrer or the rotating rollers, or by shaking the sample container and contents vigorously; • measuring the temperature of the sample and adjusting the temperature to 22° C.; • removing the pH electrode from its deionised water storage solution and immersing it carefully into the test slurry; • waiting until a stable pH reading is obtained; • recording the pH value of the undisturbed slurry. Viscosity
1 kg samples of a calcium carbonate slurry having 78 wt % solids and 60% of particles less than 2 μm in size (measured using a micrometrics sedigraph) were adjusted to […] at room temperature using 2-amino-2-methyl-1-propanol (AMP) or dimethylethanolamine (DMEA). The control sample was adjusted to pH 10 using dilute sodium hydroxide solution. The solids content of the samples was adjusted using deionised water.
The pH of each slurry was lowered to pH 8 by aspirating the sample with carbon dioxide (CO2) enriched air (2%) using a flow rate of 5 mL/min. When pH 8 had been reached, aspiration of the sample was stopped.
Recovery of the sample pH was then monitored and recorded over subsequent days using the Mettler Toledo FE20 pH meter as described above in the detailed description.

[2] = pH of calcium carbonate slurry after sequential 50 mg/kg additions (Example 2); type: physicochemical; conditions: for δ pH: change per 50 mg/kg aliquot
Text: The pH of the aqueous suspension may be measured using any conventional pH meter. For example, the pH of the aqueous suspension may be measured using the Digital pH meter “Mettler Toledo FE20”, which has been calibrated in accordance with the manufacturer's instructions, using buffer solutions with nominal values of 4, 7 and 9. This may be carried out using either a manual or automatic method, depending on the type of instrument being used.
as §1
50 mg/kg aliquots of either AMP or DMEA were sequentially added to 250 g calcium carbonate slurry samples having 78 wt % solids and 60% of particles less than 2 μm in size (measured using a micrometrics sedigraph). In this context, 50 mg/kg means that 50 mg of AMP or DMEA was added per kg of dry inorganic particulate material in the aqueous suspension. The pH of the samples was measured after stirring immediately after each 50 mg/kg addition.

For `CN(C)CCO` [DMEA, Dimethylethanolamine], the pH of sample ([1]; day 0, before CO2 aspiration) was 10.00, the “δ pH” value ([1]; day 0.5) was 0.00 and the pH of sample ([1]; day 0.5, lowered to pH 8 with CO2) was 8.00. For the same compound, the pH of sample ([1]; day 1) was 8.22, the “δ pH” value ([1]; day 1) was 0.22 and the pH of sample ([1]; day 2) was 8.28. The “δ pH” value ([1]; day 2) was 0.28, the pH of sample ([1]; day 3) was 8.35 and the “δ pH” value ([1]; day 3) was 0.35. The pH of sample ([1]; day 4) was 8.43, the “δ pH” value ([1]; day 4) was 0.43 and the pH of sample ([1]; day 9) was 8.52. For the same compound, the “δ pH” value ([1]; day 9) was 0.52, the pH of sample ([1]; day 11) was 8.55 and the “δ pH” value ([1]; day 11) was 0.55. The pH of sample ([1]; day 16) was 8.58, the “δ pH” value ([1]; day 16) was 0.58 and the pH of sample ([1]; day 20) was 8.60. For the same compound, the “δ pH” value ([1]; day 20) was 0.60, the pH of sample ([1]; day 23) was 8.64 and the “δ pH” value ([1]; day 23) was 0.64. For the same compound, the pH of sample ([1]; day 24) was 8.65, the “δ pH” value ([1]; day 24) was 0.65 and the pH of sample ([1]; day 27) was 8.70. The “δ pH” value ([1]; day 27) was 0.70, the pH of sample ([1]; day 28) was 8.79 and the “δ pH” value ([1]; day 28) was 0.79. For the same compound, the “pH recovery compared with sample comprising AMP and control sample” value ([1]; recovery from pH 8) was “increased more rapidly and to a higher level”, the “pH the sample increased to” value ([1]; recovery from pH 8, end of monitoring, control sample 8.3) was 8.8 and the “δ pH” value ([2]; total 50 mg/kg added) was 0.25. For the same compound, the pH of sample ([2]; total 50 mg/kg of chemical added) was 9.19, the “δ pH” value ([2]; total 100 mg/kg added) was 0.17 and the pH of sample ([2]; total 100 mg/kg of chemical added) was 9.36. The “δ pH” value ([2]; total 150 mg/kg added) was 0.13, the pH of sample ([2]; total 150 mg/kg of chemical added) was 9.49 and the “δ pH” value ([2]; total 200 mg/kg added) was 0.11. For the same compound, the pH of sample ([2]; total 200 mg/kg of chemical added) was 9.60, the “δ pH” value ([2]; total 250 mg/kg added) was 0.07 and the pH of sample ([2]; total 250 mg/kg of chemical added) was 9.67. The “δ pH” value ([2]; total 300 mg/kg added) was 0.07, the pH of sample ([2]; total 300 mg/kg of chemical added) was 9.74 and the “δ pH” value ([2]; total 350 mg/kg added) was 0.06. The pH of sample ([2]; total 350 mg/kg of chemical added) was 9.80, the “δ pH” value ([2]; total 400 mg/kg added) was 0.05 and the pH of sample ([2]; total 400 mg/kg of chemical added) was 9.85. The “δ pH” value ([2]; total 450 mg/kg added) was 0.05, the pH of sample ([2]; total 450 mg/kg of chemical added) was 9.90 and the “δ pH” value ([2]; total 500 mg/kg added) was 0.05. For the same compound, the pH of sample ([2]; total 500 mg/kg of chemical added) was 9.95, the “δ pH” value ([2]; total 550 mg/kg added) was 0.04 and the pH of sample ([2]; total 550 mg/kg of chemical added) was 9.99. For the same compound, the “δ pH” value ([2]; total 600 mg/kg added) was 0.02 and the pH of sample ([2]; total 600 mg/kg of chemical added) was 10.01.
